Literature values, collected in publication PMC3460366, “Synthesis and Antibacterial Evaluation of a New Series of N-Alkyl-2-alkynyl/(E)-alkenyl-4-(1H)-quinolones” (Molecules, 2012).

Target: T1, M. tuberculosis MurE ligase (Mycobacterium tuberculosis, UniProt P9WJL3)
T1 construct: made in house; host or cells: E. coli BL21(DE3)pLysS
Design: method as in PMID 21622974
Details: positive control; read-out: IC50 Mtb MurE; cited from earlier work

T1 sequence (P9WJL3 whole entry): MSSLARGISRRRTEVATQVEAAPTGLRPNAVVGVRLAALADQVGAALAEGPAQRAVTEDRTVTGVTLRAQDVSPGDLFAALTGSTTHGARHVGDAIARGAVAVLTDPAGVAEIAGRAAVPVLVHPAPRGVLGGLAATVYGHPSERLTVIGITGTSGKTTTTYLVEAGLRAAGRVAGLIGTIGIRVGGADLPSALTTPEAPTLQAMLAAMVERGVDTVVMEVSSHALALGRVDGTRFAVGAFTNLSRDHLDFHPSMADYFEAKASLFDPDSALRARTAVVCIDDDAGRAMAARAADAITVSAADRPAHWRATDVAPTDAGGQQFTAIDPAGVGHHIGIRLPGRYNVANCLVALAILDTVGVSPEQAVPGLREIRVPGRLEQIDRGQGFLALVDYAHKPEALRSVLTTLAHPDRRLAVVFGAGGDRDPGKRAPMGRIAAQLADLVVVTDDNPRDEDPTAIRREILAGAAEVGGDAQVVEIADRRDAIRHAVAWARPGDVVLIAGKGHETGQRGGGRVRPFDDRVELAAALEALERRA

## CCCCCCCC/C=C\CCCCc1cc(=O)c2ccccc2n1C [1-Methyl-2-[(5Z)-tetradecenyl]-4(1H)-quinolone]
  IC50: 36 µM
